Results published in patent US20240101557A1, “FUSED TRICYCLIC COMPOUNDS AS INHIBITORS OF KRAS G12V MUTANTS” (INCYTE CORPORATION, priority 2022, published 2024).

What was measured:
KRAS G12V = test: G12V_cell (cellular assay on KRAS G12V cells, method not named in Table 1); type: cell-based; details: cell line and readout not stated
Description: MIA PaCa-2 (KRAS G12C; ATCC® CRL-1420), NCI-H358 (KRAS G12C; ATCC® CRL-5807), A427 (KRAS G12D; ATCC® HTB53), HPAFII (KRAS G12D; ATCC® CRL-1997), YAPC (KRAS G12V; DSMZ ACC382), SW480 (KRAS G12V; ATCC® CRL-228) and NCI-H838 (KRAS WT; ATCC® CRL-5844) cells are cultured in RPMI 1640 media supplemented with 10% FBS (Gibco/Life Technologies). Eight hundred cells per well in RPMI 1640 media supplemented with 2% FBS are seeded into white, clear bottomed 384-well Costar tissue culture plates containing 50 nL dots of test compounds (final concentration is a 1:500 dilution, with a final concentration in 0.2% DMSO). Plates are incubated for 3 days at […], 5% CO2. At the end of the assay, 25 ul/well of CellTiter-Glo reagent (Promega) is added. Luminescence is read after 15 min. with a PHERAstar (BMG). Data are analyzed in Genedata Screener using SmartFit for IC50 values.
MIA PaCa-2 (KRAS G12C; ATCC® CRL-1420), NCI-H358 (KRAS G12C; ATCC® CRL-5807), A427 (KRAS G12D; ATCC® HTB53), HPAFII (KRAS G12D; ATCC® CRL-1997), YAPC (KRAS G12V; DSMZ ACC382), SW480 (KRAS G12V; ATCC® CRL-228) and NCI-H838 (KRAS WT; ATCC® CRL-5844) cells are purchased from ATCC and maintained in RPMI 1640 media supplemented with 10% FBS (Gibco/Life Technologies). The cells are plated at 5000 cells per well (8 uL) into Greiner 384-well low volume, flat-bottom, and tissue culture treated white plates and incubated overnight at […], 5% CO2. The next morning, test compound stock solutions are diluted in media at 3× the final concentration and 4 uL are added to the cells, with a final concentration of 0.1% of DMSO. The cells are incubated with the test compounds for 4 h (G12C and G12V) or 2 hrs (G12D) at 37° C., 5% CO2. Four uL of 4× lysis buffer with blocking reagent (Cisbio) are added to each well and plates are rotated gently (300 rpm) for 30 min. at r.t. Four uL per well of Cisbio anti Phospho-ERK ½ d2 is mixed with anti Phospho-ERK ½ Cryptate (1:1), and added to each well, incubated overnight in the dark at r.t. Plates are read on the Pherastar plate reader at 665 nm and 620 nm wavelengths. Data are analyzed in Genedata Screener using SmartFit for IC50 values.

KRAS G12V mutant = KRAS G12V mutant (Homo sapiens, UniProt P01116, G12V); test: GDP-GTP exchange assay (bodipy-GDP for GppNHp, with SOS1), KRAS G12V; type: biochemical; details: bodipy-loaded KRAS G12V 2.5 nM, 3 h incubation after GppNHp-SOS1; read-out: G12V_ exchange
KRAS G12V mutant, sequence (P01116 1-188 isoform P01116-2 G12V): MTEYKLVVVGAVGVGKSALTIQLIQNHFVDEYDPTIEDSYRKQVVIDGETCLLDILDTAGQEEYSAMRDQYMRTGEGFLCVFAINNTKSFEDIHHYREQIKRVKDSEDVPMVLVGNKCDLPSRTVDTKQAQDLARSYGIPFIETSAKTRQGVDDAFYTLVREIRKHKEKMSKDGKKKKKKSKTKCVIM
Description: (§1) The inhibitor potency of the exemplified compounds was determined in a fluorescence based guanine nucleotide exchange assay, which measures the exchange of bodipy-GDP (fluorescently labeled GDP) for GppNHp (Non-hydrolyzable GTP analog) to generate the active state of KRAS in the presence of SOS1 (guanine nucleotide exchange factor). Inhibitors were serially diluted in DMSO and a volume of 0.1 μL was transferred to the wells of a black low volume 384-well plate. 5 μL/well volume of bodipy-loaded KRAS G12D diluted to 2.5 nM in assay buffer (25 mM Hepes pH 7.5, 50 mM NaCl, 10 mM MgCl2 and 0.01% Brij-35) was added to the plate and pre-incubated with inhibitor for 4 h at ambient temperature. Appropriate controls (enzyme with no inhibitor or with a G12D inhibitor) were included on the plate. The exchange was initiated by the addition of a 5 μL/well volume containing 1 mM GppNHp and 300 nM SOS1 in assay buffer. The 10 μL/well reaction concentration of the bodipy-loaded KRAS G12D, GppNHp, and SOS1 were 2.5 nM, 500 uM, and 150 nM, respectively. The reaction plates were incubated at ambient temperature for 2 h, a time estimated for complete GDP-GTP exchange in the absence of inhibitor. For the KRAS G12V mutant, similar guanine nucleotide exchange assays were used with 2.5 nM as final concentration for the bodipy loaded KRAS proteins and 3 h incubation after adding GppNHp-SOS1 mixture. A cyclic peptide described to selectively bind G12D mutant (Sakamoto et al., BBRC 484.3 (2017), 605-611) or internal compounds with confirmed binding were used as positive controls in the assay plates. Fluorescence intensities were measured on a PheraStar plate reader instrument (BMG Labtech) with excitation at 485 nm and emission at 520 nm.
(§2) Either GraphPad prism or Genedata Screener SmartFit was used to analyze the data. The IC50 values were derived by fitting the data to a four parameter logistic equation producing a sigmoidal dose-response curve with a variable Hill coefficient.
(§3) The symbol “†” indicates IC50≤100 nM, “††” indicates IC50>100 nM but ≤1 μM; and “†††” indicates IC50 is >1 μM but ≤5 μM, “††††” indicates IC50 is >5 μM but ≤10 μM. “NA” indicates IC50 not available.

KRAS G12D = KRAS G12D (Homo sapiens, UniProt P01116, G12D); test: GDP-GTP exchange assay (bodipy-GDP for GppNHp, with SOS1), KRAS G12D; type: biochemical; details: bodipy-loaded KRAS G12D 2.5 nM, 4 h pre-incubation, 2 h after GppNHp/SOS1; read-out: G12D_exchange
KRAS G12D, sequence (P01116 1-188 isoform P01116-2 G12D): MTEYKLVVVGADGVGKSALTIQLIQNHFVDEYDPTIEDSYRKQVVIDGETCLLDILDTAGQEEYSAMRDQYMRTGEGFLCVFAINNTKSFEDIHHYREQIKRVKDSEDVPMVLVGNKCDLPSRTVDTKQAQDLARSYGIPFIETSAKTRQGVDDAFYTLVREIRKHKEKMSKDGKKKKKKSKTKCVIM
Description: as §1, §2, §3

| IC50 (KRAS G12V) [µM] | IC50 (KRAS G12V mutant) [µM] | IC50 (KRAS G12D) [µM] | Compound |
| --- | --- | --- | --- |
| ≤ 0.1 | ≤ 0.1 | ≤ 0.1 | CC(=O)N1CCC[C@@H]1c1c(Cl)c2c(O[C@@H](C)[C@@H]3CCCN3C)nc3c(F)c(-c4cccc(Cl)c4Cl)c(CCC#N)cc3c2n1[C@H]1[C@H]2CN[C@@H]1C2 [Example 3, 3-(2-((R)-1-Acetylpyrrolidin-2-yl)-1-((1R,4R,5S)-2-azabicyclo[2.1.1]hexan-5-yl)-3-chloro-7-(2,3-dichlorophenyl)-6-fluoro-4-((S)-1-((S)-1-methylpyrrolidin-2-yl)ethoxy)-1H-pyrrolo[3,2-c]quinolin-8-yl)propanenitrile] |
| ≤ 0.1 | ≤ 0.1 | ≤ 0.1 | C[C@H](Oc1nc2c(F)c(-c3cccc(Cl)c3Cl)c(CCC#N)cc2c2c1cc([C@H]1C[C@H](F)CN1C(=O)C1CC1)n2[C@H]1[C@H]2CN[C@@H]1C2)[C@@H]1CCCN1C [Example 10, 3-(1-((1R,4R,5S)-2-Azabicyclo[2.1.1]hexan-5-yl)-2-((2R,4S)-1-(cyclopropanecarbonyl)-4-fluoropyrrolidin-2-yl)-7-(2,3-dichlorophenyl)-6-fluoro-4-((S)-1-((S)-1-methylpyrrolidin-2-yl)ethoxy)-1H-pyrrolo[3,2-c]quinolin-8-yl)propanenitrile] |
| ≤ 0.1 | ≤ 0.1 | ≤ 0.1 | CC(=O)N1CCC[C@@H]1c1cc2c(O[C@@H](C)[C@@H]3CCCN3C)nc3c(F)c(-c4cccc(Cl)c4Cl)c(CCC#N)cc3c2n1[C@H]1[C@H]2CN[C@@H]1C2 [Example 1, 3-(2-((R)-1-Acetylpyrrolidin-2-yl)-1-((1R,4R,5S)-2-azabicyclo[2.1.1]hexan-5-yl)-7-(2,3-dichlorophenyl)-6-fluoro-4-((S)-1-((S)-1-methylpyrrolidin-2-yl)ethoxy)-1H-pyrrolo[3,2-c]quinolin-8-yl)propanenitrile] |
| ≤ 0.1 | ≤ 0.1 | ≤ 0.1 | CC(=O)N1CCC[C@@H]1c1cc2c(O[C@@H](C)[C@@H]3CCCN3C)nc3c(F)c(-c4cccc5ncc(F)cc45)c(CCC#N)cc3c2n1[C@H]1[C@H]2CN[C@@H]1C2 [Example 5, 3-(2-((R)-1-Acetylpyrrolidin-2-yl)-1-((1R,4R,5S)-2-azabicyclo[2.1.1]hexan-5-yl)-6-fluoro-7-(3-fluoroquinolin-5-yl)-4-((S)-1-((S)-1-methylpyrrolidin-2-yl)ethoxy)-1H-pyrrolo[3,2-c]quinolin-8-yl)propanenitrile] |
| ≤ 0.1 | ≤ 0.1 | ≤ 0.1 | C[C@H](Oc1nc2c(F)c(-c3cccc(Cl)c3Cl)c(CCC#N)cc2c2c1cc([C@H]1C[C@H](OC(F)F)CN1C(=O)C1CC1)n2[C@H]1[C@H]2CN[C@@H]1C2)[C@@H]1CCCN1C [Example 8, 3-(1-((1R,4R,5S)-2-Azabicyclo[2.1.1]hexan-5-yl)-2-((2R,4S)-1-(cyclopropanecarbonyl)-4-(difluoromethoxy)pyrrolidin-2-yl)-7-(2,3-dichlorophenyl)-6-fluoro-4-((S)-1-((S)-1-methylpyrrolidin-2-yl)ethoxy)-1H-pyrrolo[3,2-c]quinolin-8-yl)propanenitrile] |
| ≤ 0.1 | ≤ 0.1 | ≤ 0.1 | COC(=O)N1C[C@@H](Oc2ccccn2)C[C@@H]1c1cc2c(O[C@@H](C)[C@@H]3CCCN3C)nc3c(F)c(-c4cccc(Cl)c4Cl)c(CCC#N)cc3c2n1[C@H]1[C@H]2CN[C@@H]1C2 [Example 6, Methyl (2R,4S)-2-(1-((1R,4R,5S)-2-azabicyclo[2.1.1]hexan-5-yl)-8-(2-cyanoethyl)-7-(2,3-dichlorophenyl)-6-fluoro-4-((S)-1-((S)-1-methylpyrrolidin-2-yl)ethoxy)-1H-pyrrolo[3,2-c]quinolin-2-yl)-4-(pyridin-2-yloxy)pyrrolidine-1-carboxylate] |

The remaining lines, values behind:

| Compound | IC50 (KRAS G12V) [µM] | IC50 (KRAS G12V mutant) [µM] | IC50 (KRAS G12D) [µM] |
| --- | --- | --- | --- |
| C[C@H](Oc1nc2c(F)c(-c3cccc4ccc(F)cc34)c(CCC#N)cc2c2c1cc(-c1cnn(C)c1C(=O)N(C)C)n2[C@H]1[C@H]2CN[C@@H]1C2)[C@@H]1CCCN1C [Example 2, 4-(1-((1R,4R,5S)-2-Azabicyclo[2.1.1]hexan-5-yl)-8-(2-cyanoethyl)-6-fluoro-7-(7-fluoronaphthalen-1-yl)-4-((S)-1-((S)-1-methylpyrrolidin-2-yl)ethoxy)-1H-pyrrolo[3,2-c]quinolin-2-yl)-N,N,1-trimethyl-1H-pyrazole-5-carboxamide] | ≤ 0.1 | ≤ 0.1 | ≤ 0.1 |
| CC(=O)N1CCC[C@@H]1c1cc2c(O[C@@H](C)[C@@H]3CCCN3C)nc3c(F)c(-c4cccc5c4C(C#N)CCC5)c(C)cc3c2n1[C@H]1[C@H]2CN[C@@H]1C2 (stereo partly drawn) [Example 4, 8-(2-((R)-1-Acetylpyrrolidin-2-yl)-1-((1R,4R,5S)-2-azabicyclo[2.1.1]hexan-5-yl)-6-fluoro-8-methyl-4-((S)-1-((S)-1-methylpyrrolidin-2-yl)ethoxy)-1H-pyrrolo[3,2-c]quinolin-7-yl)-1,2,3,4-tetrahydronaphthalene-1-carbonitrile] | ≤ 0.1 | ≤ 0.1 | ≤ 0.1 |
| C[C@H](Oc1nc2c(F)c(-c3cccc(Cl)c3Cl)c(CCC#N)cc2c2c1cc([C@H]1C[C@H](Oc3ncccc3F)CN1C(=O)C1CC1)n2[C@H]1[C@H]2CN[C@@H]1C2)[C@@H]1CCCN1C [Example 9, 3-(1-((1R,4R,5S)-2-Azabicyclo[2.1.1]hexan-5-yl)-2-((2R,4S)-1-(cyclopropanecarbonyl)-4-((3-fluoropyridin-2-yl)oxy)pyrrolidin-2-yl)-7-(2,3-dichlorophenyl)-6-fluoro-4-((S)-1-((S)-1-methylpyrrolidin-2-yl)ethoxy)-1H-pyrrolo[3,2-c]quinolin-8-yl)propanenitrile] | ≤ 0.1 | ≤ 0.1 | ≤ 0.1 |
| CC(=O)N1[C@@H](c2cc3c(O[C@@H](C)[C@@H]4CCCN4C)nc4c(F)c(-c5cccc6c5C(C#N)CCC6)c(C)cc4c3n2[C@H]2[C@H]3CN[C@@H]2C3)C[C@@H]2C[C@@H]21 (stereo partly drawn) [Example 7, 8-(2-((1S,3R,5S)-2-Acetyl-2-azabicyclo[3.1.0]hexan-3-yl)-1-((1R,4R,5S)-2-azabicyclo[2.1.1]hexan-5-yl)-6-fluoro-8-methyl-4-((S)-1-((S)-1-methylpyrrolidin-2-yl)ethoxy)-1H-pyrrolo[3,2-c]quinolin-7-yl)-1,2,3,4-tetrahydronaphthalene-1-carbonitrile] | ≤ 0.1 | ≤ 0.1 | ≤ 0.1 |
